Publication PMC6407579, “New flavonoid – N,N-dibenzyl(N-methyl)amine hybrids: Multi-target-directed agents for Alzheimer´s disease endowed with neurogenic properties” (Journal of Enzyme Inhibition and Medicinal Chemistry, 2019)
Values joined by “and” are separate entries in the source; they are usually repeats but may differ in a detail not shown here. Equal entries are not always repeated.

What was measured:
[1] = target: T1, hAChE (Homo sapiens, UniProt P22303); test: Kinetic analysis of hAChE inhibition (Lineweaver-Burk); format: biochemical
T1 construct: purchased Sigma Chemical Co
T1 sequence (P22303 32-614): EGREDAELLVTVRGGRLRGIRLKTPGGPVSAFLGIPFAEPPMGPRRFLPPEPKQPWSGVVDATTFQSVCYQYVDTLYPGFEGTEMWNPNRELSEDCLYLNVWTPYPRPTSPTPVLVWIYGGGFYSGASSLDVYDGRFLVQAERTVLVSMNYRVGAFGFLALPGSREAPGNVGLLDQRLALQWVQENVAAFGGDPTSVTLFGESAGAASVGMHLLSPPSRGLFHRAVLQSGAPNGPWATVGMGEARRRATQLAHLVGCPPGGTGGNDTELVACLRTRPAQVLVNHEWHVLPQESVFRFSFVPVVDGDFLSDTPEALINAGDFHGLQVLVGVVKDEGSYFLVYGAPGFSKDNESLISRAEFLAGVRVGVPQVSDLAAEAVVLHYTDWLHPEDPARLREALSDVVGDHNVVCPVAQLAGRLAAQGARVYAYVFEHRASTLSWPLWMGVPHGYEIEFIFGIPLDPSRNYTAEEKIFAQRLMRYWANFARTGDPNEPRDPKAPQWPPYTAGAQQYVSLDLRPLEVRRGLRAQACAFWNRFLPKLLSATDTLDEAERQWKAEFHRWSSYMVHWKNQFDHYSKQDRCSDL
Procedure: Figure 3. Kinetic study on the mechanism of hAChE inhibition by hybrid 5. (A) Overlaid Lineweaver-Burk reciprocal plots of hAChE initial velocity at increasing substrate concentration (ATCh, 0.2–1.6 mM) in the absence of inhibitor and in the presence of 5 (0–10 µM) are shown. Lines were derived from a least-squares analysis of the data points. (B) Replot of slopes vs. inhibitor concentration for calculating Ki as the intersection in the x-axis. […]
The initial velocity of enzymatic inhibition was measured at four concentrations of the substrate acetylthiocholine (ATCh, 0.2–1.6 mM), in absence and presence of increasing concentrations of inhibitor 5 (0.5–10 µM). For each inhibitor concentration, plotting reciprocals of velocity vs. ATCh concentration (1/V vs. 1/[ATCh]) gave straight lines that were fitted by least-squares analysis (Figure 3). […]

[2] = In vitro blood-brain barrier permeation assay (PAMPA-BBB); format: in vitro ADME; details: pig, pH 7.4, porcine brain lipid, PBS:ethanol (70:30), 25 °C, read-out: PAMPA-BBB permeability in the CNS (Pe)
Procedure: Prediction of the brain penetration was evaluated using a parallel artificial membrane permeation assay (PAMPA-BBB), in a similar manner as previously described[36]^,[46]^,[51–53]. Pipetting was performed with a semi-automatic pipettor (CyBi®-SELMA) and UV reading with a microplate spectrophotometer (Multiskan Spectrum, Thermo Electron Co.). Commercial drugs, phosphate buffered saline solution at pH 7.4 (PBS), and dodecane were purchased from Sigma, Aldrich, Acros, and Fluka. Millex filter units (PVDF membrane, diameter 25 mm, pore size 0.45 μm) were acquired from Millipore. The porcine brain lipid (PBL) was obtained from Avanti Polar Lipids. The donor microplate was a 96-well filter plate (PVDF membrane, pore size 0.45 μm) and the acceptor microplate was an indented 96-well plate, both from Millipore. The acceptor 96-well microplate was filled with 200 μL of PBS: ethanol (70:30) and the filter surface of the donor microplate was impregnated with 5 μL of porcine brain lipid (PBL) in dodecane (20 mg mL^−1). Compounds were dissolved in PBS: ethanol (70:30) at 100 μg mL^−1, filtered through a Millex filter, and then added to the donor wells (200 μL). The donor filter plate was carefully put on the acceptor plate to form a sandwich, which was left undisturbed for 120 min at 25 °C. After incubation, the donor plate is carefully removed and the concentration of compounds in the acceptor wells was determined by UV-Vis spectroscopy. Every sample is analysed at five wavelengths, in four wells and at least in three independent runs, and the results are given as the mean ± standard deviation. In each experiment, 11 quality control standards of known BBB permeability were included to validate and normalise the analysis set.
To check if new compounds could be able to reach their CNS-targets, we used the in vitro parallel artificial membrane permeability assay for the blood-brain barrier (PAMPA-BBB) described by Di et al.[87], and partially modified by us for testing molecules with limited water-solubility[36]^,[46]^,[51–53]. The passive CNS-permeation of new compounds 1–13 through a lipid extract of porcine brain was measured at room temperature. In each experiment, 11 commercial drugs of known brain permeability were also tested and their permeability values normalised to the reported PAMPA-BBB data. […].

[3] = Oxygen radical absorbance capacity assay (ORAC); details: trolox taken as 1.0
[4] = target: T2, human recombinant BACE-1 (hBACE-1) (Homo sapiens, UniProt P56817); test: Human BACE-1 inhibition FRET assay; format: biochemical
T2 construct: purchased Invitrogen
T2 sequence (P56817 46-501): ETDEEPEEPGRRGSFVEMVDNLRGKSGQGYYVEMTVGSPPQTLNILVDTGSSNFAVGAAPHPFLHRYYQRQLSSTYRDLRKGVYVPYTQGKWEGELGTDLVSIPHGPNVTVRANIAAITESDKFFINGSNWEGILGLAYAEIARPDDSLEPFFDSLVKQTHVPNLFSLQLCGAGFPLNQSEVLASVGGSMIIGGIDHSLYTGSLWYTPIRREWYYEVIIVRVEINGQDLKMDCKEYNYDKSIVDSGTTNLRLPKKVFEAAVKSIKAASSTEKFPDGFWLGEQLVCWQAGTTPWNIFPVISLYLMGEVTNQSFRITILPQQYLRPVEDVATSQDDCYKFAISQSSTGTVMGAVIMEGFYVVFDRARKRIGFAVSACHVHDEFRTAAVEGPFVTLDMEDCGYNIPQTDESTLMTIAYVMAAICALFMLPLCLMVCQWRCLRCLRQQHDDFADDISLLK
Procedure: This experiment was carried out according to the protocol described by the manufacturer (Invitrogen) using a FRET assay[54]. […] The intact substrate is weakly fluorescent and becomes highly fluorescent upon enzymatic cleavage. The assays were conducted in 50 mM sodium acetate buffer, pH 4.5, in a final enzyme concentration (1 U/mL). The mixture was incubated for 60 min at 25 °C under dark conditions and then stopped with 2.5 M sodium acetate.

[5] = system: adult mice SGZ-derived NSCs; test: Neurogenic assay on SGZ-derived neural stem cells grown as neurospheres; format: cell-based, mouse; details: 10 µM, 7 days plus 3 days differentiation, vs. vehicle-treated cultures
Procedure: DAPI was used for nuclear staining.
Neural stem cells were isolated from the SGZ of the dentate gyrus of the hippocampus of adult mice and cultured as NS according to previously published protocols[75]^,[76]. […] Now, NS were adhered onto 100 μg/mL poly-L-lysine-coated coverslips and treated for 3 additional days in the presence of serum but in the absence of exogenous growth factors to induce differentiation[77]. Finally, the expression of neuronal markers was analysed by immunocytochemistry using antibodies linked to neurogenesis: β-III-tubulin polyclonal antibody (TuJ clone; Abcam), a protein expressed at early stages of neurogenesis and a monoclonal microtubule-associated protein type 2 (MAP-2) antibody, a classical marker of late neuronal maturation. To visualise primary antibodies Alexa-fluor-labeled secondary antibodies (Molecular probes) were used. Nuclei were stained with DAPI. Fluorescent representative images were acquired in a LSM710 laser scanning spectral confocal microscope (Zeiss). […]
Compound was added to NS cultures for 7 days and then, NS were fixed to a substrate and allowed to differentiate in the presence of 6 for a 3-days additional period. Then, we evaluated the expression of β-III-tubulin (TuJ-1 clone; green) and microtubule-associated protein 2 (MAP-2, red) antibodies to visualise early and late neuronal maturation, respectively.

| SMILES | Ki [1] | mechanism of hAChE inhibition ([1]; Lineweaver-Burk) | Papp at 120 min, 100 μg mL^−1 [2] | ORAC, trolox equivalents [3] | inhibition at 10 µM ([4]; 10 µM, read-out: hBACE-1 inhibition percentage) | IC50 ([4]; inhibitor concentrations 0.1–100 µM) | number of TuJ-1 and MAP-2 marked cells (neuronal differentiation of NSCs) [5] |
| --- | --- | --- | --- | --- | --- | --- | --- |
| COc1cc2oc(C(=O)Nc3ccc(CN(C)Cc4ccccc4)cc3)cc(=O)c2cc1OC [Compound 5, N-(4-((Benzyl(methyl)amino)methyl)phenyl)-6,7-dimethoxy-4-oxo-4H-chromene-2-carboxamide] | 950 nM | a mixture of competitive and non-competitive mechanisms | 19.1 ± 1.5 ×10⁻⁶ cm/s |  |  |  |  |
| COc1ccc2oc(C(=O)Nc3ccc(CN(C)Cc4ccccc4)cc3)cc(=O)c2c1 [Compound 1, N-(4-((Benzyl(methyl)amino)methyl)phenyl)-6-methoxy-4-oxo-4H-chromene-2-carboxamide] |  |  | 17.1 ± 1.5 ×10⁻⁶ cm/s |  |  |  |  |
| CN(Cc1ccccc1)Cc1ccc(NC(=O)c2cc(=O)c3cc(O)ccc3o2)cc1 [Compound 2, N-(4-((Benzyl(methyl)amino)methyl)phenyl)-6-hydroxy-4-oxo-4H-chromene-2-carboxamide] |  |  | 6.8 ± 0.4 ×10⁻⁶ cm/s | 1.6 mmol of trolox/mmol of tested compound and 1.6 ± 0.2 mmol of trolox/mmol of tested compound |  |  |  |
| COc1cc2oc(C(=O)Nc3cccc(CN(C)Cc4ccccc4)c3)cc(=O)c2cc1OC [Compound 6, N-(3-((Benzyl(methyl)amino)methyl)phenyl)-6,7-dimethoxy-4-oxo-4H-chromene-2-carboxamide] |  |  | 18.8 ± 1.3 ×10⁻⁶ cm/s |  | ~80% | 6.7 ± 0.8 µM | clearly increased |
